As a reminder, the EC50 is the concentration that produces a half-maximal response. The term CC50 denotes the concentration at which the toxic effect on the cells reaches its halfway point. Broadly, the IC50 is the midpoint of a concentration-inhibition curve. Read a low IC50 as inhibition by little substance.

The values below come from ChEMBL document CHEMBL1275573, “Inhibition of herpesvirus replication by hexadecyloxypropyl esters of purine- and pyrimidine-based phosphonomethoxyethyl nucleoside phosphonates” (Antimicrob Agents Chemother, 2008).

The nature of data set [1]: Antiviral activity against Epstein-Barr virus p3hr-1 infected in human daudi cells. The format is functional, cell-based, Epstein-barr virus strain p3hr-1. The following applies: human gammaherpesvirus 4, Daudi.
Data set [2] is described as follows: Selectivity index, ratio of EC50 for Human herpesvirus 6B Z29 to CC50 for human MOLT-3 cells.
The nature of data set [3]: Cytotoxicity against human HSB2 cell after 4 hrs by MTS assay. The conditions noted are these: CCRF-HSB-2, 4 h. The class given is functional. In general terms: Tetrazolium dyes change colour on reduction, which living cells bring about.
Data set [4] in a line: Cytotoxicity against human HFF cells. The format is cell-based.
Data set [5] in a line: Antiviral activity against Murine cytomegalovirus Smith infected in HFF cells by plaque reduction assay. The class given is functional, cell-based, Murine cytomegalovirus (strain Smith). The conditions noted are these: Murid betaherpesvirus 1, HFF. For orientation: Plaque reduction counts the foci of infection that form in a cell layer.
Data set [6] is described as follows: Selectivity index, ratio of EC50 for Murine cytomegalovirus Smith to CC50 for human HFF cell.
The subject of a further data set is MOLT-3. The data set is described as follows: Cytotoxicity against human MOLT3 cell after 4 hrs by MTS assay. The class given is functional. The conditions noted are these: MOLT-3, 4 h.
The nature of data set [7]: Antiviral activity against Human herpesvirus 6A GS infected in human HSB-2 cells. The format is functional, cell-based. The conditions noted are these: Human betaherpesvirus 6A, HSB2.
Another data set deals with Human betaherpesvirus 5. The data set is described as follows: Antiviral activity against Human cytomegalovirus AD169 infected in HFF cells by plaque reduction assay. The format is functional, organism-based. The conditions noted are these: Human betaherpesvirus 5, AD169, HFF.
Data set [8] in a line: Antiviral activity against Human herpesvirus 6B Z29 infected in human MOLT-3 cells. The format is functional, cell-based. The following applies: Human betaherpesvirus 6B, Z29, MOLT-3.
In a further data set the test system is Human alphaherpesvirus 3. The data set is described as follows: Antiviral activity against Varicella zoster virus Ellen infected in HFF cells by plaque reduction assay. The conditions noted are these: Human alphaherpesvirus 3, Ellen. The format is functional, organism-based.
Another data set concerns Human alphaherpesvirus 1. The data set is described as follows: Antiviral activity against herpes simplex virus 1 E-377 infected in HFF cells by plaque reduction assay. The conditions noted are these: Human alphaherpesvirus 1, E-377, HFF. The class given is functional, organism-based.
The next data set relates to Daudi. The data set is described as follows: Cytotoxicity against human Daudi cell after 4 hrs by MTS assay. The format is functional.
Data set [9] in a line: Selectivity index, ratio of EC50 for herpes simplex virus type 2 MS to CC50 for human HFF cell.
The next data set concerns Human alphaherpesvirus 2. The data set is described as follows: Antiviral activity against herpes simplex virus 2 MS infected in HFF cells by plaque reduction assay. The format is functional, organism-based. The following applies: Human alphaherpesvirus 2, MS.
Data set [10] can be described thus: Selectivity index, ratio of EC50 for Epstein-Barr virus P3HR-1 to CC50 for human daudi cell.
Data set [11] can be described thus: Selectivity index, ratio of EC50 for herpes simplex virus type 1 E-377 to CC50 for human HFF cell.
Data set [12] can be described thus: Cytotoxicity against human HFF cells after 7 days by neutral red dye method. The class given is cell-based.

Some results are limits rather than exact numbers.

In the case of `Nc1nc(=O)n(CCOCP(=O)(O)O)cc1F`, the EC50 is over 50 µM in [1]; 78 µM in data set [5]; over 50 µM in [7]; over 20 µM with Human betaherpesvirus 5; over 50 µM in data set [8]. The “Selectivity Index” value in data set [2] is listed as 1; in [6] it was 2.8. For the same compound, the CC50 is over 41 µM in [3], 220 µM in data set [4] and over 50 µM in the data set with MOLT-3.
For `CCCCCCCCCCCCCCCCOCCCOP(=O)(O)COCCn1ccc(N)nc1=O`, the EC50 was over 50 µM in data set [1]; over 300 µM in the data set on Human alphaherpesvirus 3; 260 µM in the data set with Human alphaherpesvirus 1; over 20 µM in data set [5]; 35 µM with Human alphaherpesvirus 2; over 50 µM in data set [7]. Further, the EC50 in the data set with Human betaherpesvirus 5 was over 20 µM; in data set [8], over 50 µM. In addition, the “Selectivity Index” value is given as 1 in [2]; under 150 in data set [6]; over 9 in data set [9]; under 2 in data set [10]; over 1.1 in data set [11]. The CC50 in data set [3] was over 50 µM; in [4], 200 µM; with Daudi it was over 100 µM; in the data set on MOLT-3, over 50 µM. The compound further displayed a CC50 at 168 h in [12] of over 300 µM.
For `CCCCCCCCCCCCCCCCOCCCOP(=O)(O)COCCn1cc(Br)c(N)nc1=O`, the EC50 came out at 0.03 µM in data set [1]; 42 µM with Human alphaherpesvirus 3; 1.2 µM in the data set with Human alphaherpesvirus 1; 1.3 µM in [5]; 18 µM in the data set on Human alphaherpesvirus 2; 38 µM in data set [7]. Besides, the EC50 is 4.8 µM in the data set with Human betaherpesvirus 5 and over 45 µM in data set [8]. Further, the “Selectivity Index” value is recorded as 1 in [2]; over 230 in data set [6]; over 17 in data set [9]; over 3400 in [10]; over 250 in data set [11]. The CC50 in data set [3] was over 41 µM; in data set [4], 35 µM; in the data set on Daudi it was over 100 µM; in the data set with MOLT-3 it was over 50 µM. In data set [12], this compound showed a CC50 at 168 h of over 300 µM.
On to `CCCCCCCCCCCCCCCCOCCCOP(=O)(O)COCCn1cc(F)c(N)nc1=O`, for which the EC50 in [1] was 1.3 µM; in the data set on Human alphaherpesvirus 3 it was 2.6 µM; in the data set with Human alphaherpesvirus 1, over 12 µM; in [5], 0.08 µM; in the data set with Human alphaherpesvirus 2, over 12 µM; in data set [7] it was 7.2 µM. The values for the EC50 (in the data set with Human betaherpesvirus 5; in [8]) were 2 µM and 37 µM, respectively. The “Selectivity Index” value in data set [2] was over 1; in data set [6], 440; in data set [9], under 3; in data set [10], over 77; in [11] it was under 3. Further, the CC50 in [3] was 22.6 µM; in data set [4] it was 33 µM; with Daudi it was over 100 µM; in the data set with MOLT-3 it was over 50 µM. The compound also yielded a CC50 at 168 h in data set [12] of 35 µM.
With `Nc1nc(NC2CC2)c2ncn(CCOCP(=O)(O)O)c2n1`, the EC50 is 0.1 µM in data set [1]; 0.8 µM in the data set on Human alphaherpesvirus 3; 4 µM with Human alphaherpesvirus 1; under 0.06 µM in data set [5]; 7.9 µM with Human alphaherpesvirus 2; 1 µM in data set [7]. The EC50 is 0.4 µM in the data set on Human betaherpesvirus 5 and 6.4 µM in [8]. Besides, the “Selectivity Index” value in data set [2] is given as 1; in [6], over 1700; in data set [9] it was over 13; in data set [10], 200; in [11] it was over 25. Moreover, the CC50 came out at 3 µM in [3], 150 µM in [4], 20 µM in the data set on Daudi and 8.5 µM with MOLT-3. This compound registered a CC50 at 168 h in data set [12] of over 100 µM.
On to `Nc1ccn(CCOCP(=O)(O)O)c(=O)n1`, for which the half-maximal effective concentration (EC50) in data set [1] was over 41 µM; in the data set on Human alphaherpesvirus 3 it was over 300 µM; with Human alphaherpesvirus 1 it was over 300 µM; in data set [5], 63 µM; in the data set with Human alphaherpesvirus 2, over 300 µM; in the data set with Human betaherpesvirus 5, over 20 µM. For the same compound, the EC50 in [8] is over 50 µM. The “Selectivity Index” value in data set [2] was 1; in data set [6], over 480; in [9] it was 1; in data set [10], under 2.4; in data set [11] it was 1. Moreover, the 50% cytotoxic concentration (CC50) in data set [3] is over 50 µM; in data set [4], 220 µM; in the data set on Daudi, over 100 µM; in the data set with MOLT-3 it was over 50 µM. Moreover, the CC50 at 168 h in [12] is over 300 µM. In addition, the IC50 in data set [7] was over 50 µM.
Consider `CCCCCCCCCCCCCCCCOCCCOP(=O)(O)COCCn1cnc2c(N)nc(N)nc21`, for which the EC50 in [1] was determined as 0.8 µM; in the data set on Human alphaherpesvirus 3, 0.3 µM; with Human alphaherpesvirus 1, 0.6 µM; in [5], 0.5 µM; with Human alphaherpesvirus 2, 0.4 µM; in data set [7], 2 µM. Also, the results for the EC50 (in the data set on Human betaherpesvirus 5; in data set [8]) were 0.5 µM and 34 µM, respectively. The “Selectivity Index” value in data set [2] was 1; in [6] it was 240; in [9], 300; in [10], over 63; in data set [11] it was 200. Also, the CC50 in data set [3] is 6.4 µM; in [4], 170 µM; in the data set with Daudi it was over 50 µM; in the data set on MOLT-3, 51 µM. In addition, in data set [12], the midpoint of cytotoxicity, the CC50 at 168 h, lay at 120 µM.
Regarding `CCCCCCCCCCCCCCCCOCCCOP(=O)(O)COCCn1cnc2c(NC3CC3)nc(N)nc21`, the EC50 in data set [1] is 0.0007 µM; in the data set with Human alphaherpesvirus 3 it was 0.03 µM; in the data set on Human alphaherpesvirus 1, 0.1 µM; in data set [5], under 0.03 µM; in the data set with Human alphaherpesvirus 2 it was 0.2 µM; in [7], 0.05 µM. In addition, the EC50 with Human betaherpesvirus 5 was determined as 0.02 µM; in data set [8], 0.05 µM. The “Selectivity Index” value in data set [2] is on record as 6; in data set [6], over 3700; in data set [9], 550; in [10], over 71000; in data set [11], 1100. In addition, the CC50 is 0.05 µM in [3], 26 µM in data set [4], over 50 µM with Daudi and 0.3 µM in the data set with MOLT-3. Moreover, the CC50 at 168 h in data set [12] is 110 µM.
In the case of `Nc1nc(=O)n(CCOCP(=O)(O)O)cc1Br`, the EC50 in [1] was 24 µM; with Human alphaherpesvirus 3, 38 µM; in the data set with Human alphaherpesvirus 1, over 60 µM; in [5], over 20 µM; with Human alphaherpesvirus 2, over 60 µM; in data set [7], over 50 µM. The EC50 was over 20 µM with Human betaherpesvirus 5 and over 47 µM in data set [8]. Besides, the “Selectivity Index” value was under 2 in [2]; under 150 in [6]; over 5 in data set [9]; 1.1 in data set [10]; over 5 in data set [11]. Also, the CC50 stood at 3.9 µM in data set [3], 200 µM in [4], 27 µM in the data set with Daudi and 84 µM in the data set on MOLT-3. Also, the CC50 at 168 h in data set [12] was over 300 µM.
As to `Nc1nc(N)c2ncn(CCOCP(=O)(O)O)c2n1` [PMEDAP], the EC50 in data set [1] is 1.2 µM; in the data set with Human alphaherpesvirus 3, 2.9 µM; in the data set with Human alphaherpesvirus 1, over 10 µM; in data set [5] it was 0.2 µM; in the data set on Human alphaherpesvirus 2, over 10 µM; in data set [7] it was 15 µM. The EC50 in the data set on Human betaherpesvirus 5 came out at 13 µM; in data set [8] it was 28 µM. In addition, the “Selectivity Index” value in data set [2] is listed as 1; in data set [6], over 500; in data set [9], over 10; in data set [10] it was over 42; in [11], over 10. The CC50 is over 56 µM in data set [3], 170 µM in data set [4], over 50 µM with Daudi and 39 µM in the data set with MOLT-3. In data set [12], this compound yielded a CC50 at 168 h of over 100 µM.
